Values after ≈ are worked out from the molar mass of the structure shown.
Experiments:
Cal-27 cells = assay: MTT antiproliferative assay, oral Cal-27 cells; settings: Homo sapiens, CAL-27, 72 h, read-out: IC50, cytotoxicity, Oral Cal-27
Text: (§1) Several cancer cell lines including leukemia K562, Molt 4, and HL 60 cells, prostate cancer LNCaP cells, colon cancer DLD-1 cells and breast cancer T-47D cells were used to evaluate the antiproliferative activity.
(§2) The cell lines were obtained from the American Type Culture Collection (ATCC, Manassas, VA, USA). […] Dimethyl sulfoxide (DMSO), 3-(4,5-dimethylthiazol-2-yl)-2,5-diphenyl-tetrazolium bromide (MTT) and all other chemicals were purchased from Sigma-Aldrich (St. Louis, MO, USA).

Hsp70 in Molt 4 cells = assay: Immunofluorescence localization of Hsp70, confocal microscope; format: cell-based, human
Procedure: It was also reported that the induction of Hsp70 is the biomarker of Hsp90 with N-terminal inhibition. Aiming to understand the relation between Hsp90 function and the expression of Hsp70 and 90 clients, we treated Molt 4 cells with 1 (0.0625 μg/mL) for different time intervals. […] The majority of Hsps accumulate in subcellular localizations that determine whether a cell is going to die or differentiate. Erythroblasts with accumulated nuclear Hsp70 continued their differentiation process during the formation of red blood cells. Furthermore, we identified the localization of Hsp70 in response to 1 treatment using immunofluorescence by confocal microscope.
After treatment with the tested compound, cells were fixed with 4% paraformaldehyde in 50 mM HEPES buffer (pH 7.3) for 30 min, and permeabilized for 20 min with 0.2% Trition X-100 in PBS (pH 7.4). To prevent non-specific protein binding, cells were incubated with 5% BSA in PBS containing 0.05% Trition X-100 (T-PBS) for 1 h at room temperature. Cells were then incubated with the primary Hsp70 antibodies (1: 500) for 2 h and further with secondary antibodies (Alexa Fluor […] goat anti-mouse IgG (H + L) (Life Technologies, Carlsbad, CA, USA) diluted at 1:1000 for 1 h at room temperature. After washing with PBS, cells were observed under a FV1000 confocal laser scanning microscope (Olympus, Tokyo, Japan).

human topoisomerase II = target: T1, human topoisomerase II (Homo sapiens, UniProt P11388); assay: Cell-free topoisomerase II DNA relaxation/cleavage assay with supercoiled pHOT1 plasmid DNA; format: biochemical; settings: compared with control supercoiled DNA
T1 construct: purchased Topogen
Text: The ability of Topo II to generate DNA damage in the presence of Topo II-targeting agents led to the hypothesis that an important determinant of drug sensitivity was related to the overall level of Topo II[17]. […] Such findings encouraged us to evaluate the effect of the isolates on Topo II activity. In order to confirm whether the DNA damage-induced by the isolated sesterterpenoids involved the inhibition of Topo II activity, a cell-free DNA cleavage assay using an enzyme-mediated negatively supercoiled pHOT1 plasmid DNA was applied. […] These marine terpenoids suppressed Topo II activity, resulting in the inhibition of supercoiled DNA relaxation in a dose-dependent manner (Fig. 5A). […] To determine whether the apoptotic mechanism of these compounds affects γH2AX (as a biomarker of DNA damage) induction, Western blot analysis was employed to examine the activation of γH2AX.
The assay was performed as described previously. […] Reactions were terminated by adding 2 μL of 10% SDS to facilitate trapping the enzyme in a cleavage complex, followed by the addition of 2.5 μL of proteinase K (50 μg/mL) to digest the bound protein (incubated at 37 °C for 15 min) and finally by adding 0.1 volume of the sample loading dye. The DNA products were analyzed via electrophoresis through vertical 2% agarose gels at 2 voltage/cm in 0.5 × TAE buffer. Gels were stained with ethidium bromide and photographed using an Eagle Eye II system (Stratagene, La Jolla, CA, USA). The quantitative analysis of the DNA Topo II activity was performed as described previously.

HL 60 cells = assay: MTT antiproliferative assay, leukemia HL 60 cells; settings: Homo sapiens, HL-60, 72 h, read-out: IC50, cytotoxicity, Leukemia HL 60
Text: as §1, §2

Molt 4 cells [1] = assay: Annexin V/PI apoptosis assay; format: cell-based, human
Procedure: The externalization of phosphatidylserine (PS) and membrane integrity were quantified using an annexin V- FITC staining kit[72]. In brief, 10^6 cells were grown in 35 mm diameter plates and were labeled with annexin V-FITC (10 μg/mL) and PI (20 μg/mL) prior to harvesting. After labeling, all plates were washed with a binding buffer and harvested. Cells were resuspended in the binding buffer at a concentration of 2 × 10^5 cells/mL before analysis by flow cytometer FACS-Calibur (Becton-Dickinson, San Jose, CA, USA) and CellQuest software. Approximately 10,000 cells were counted for each determination.

Molt 4 cells [2] = assay: Intracellular Ca2+ accumulation, Fluo 3 flow cytometry; format: cell-based, human; settings: 0.0625 μg/mL
Procedure: Oxidative stress is manifested by ROS overexpression and cannot be balanced by the available antioxidant machinery. Compound 1 can damage the integrity of mitochondria, which are the major production sites of the superoxide anion, […]. The induction of the intracellular formation of ROS by 1 was determined with a carboxyl derivative of fluorescein, carboxy-H2DCFDA dye using flow cytometric analysis. […] In addition, ROS generation could induce ER stress leading to mitochondria-related apoptosis. To further investigate if ER stress is involved in the apoptotic effect induced by 1, Western blot analysis was used to determine the expression of ER stress-related proteins. […] Furthermore, the effect of 1 on the release of intracellular Ca^2+, was evaluated using fluorescent calcium indicator, Fluo 3. […] The induction of the typical executor caspases-3 and −7, as well as γH2AX, was also observed using Western blot analysis (Fig. 7D). To confirm the induction of DNA damage by 1 in Molt 4 cells, a comet assay under neutral electrophoresis condition was utilized. The effect of 1 (0.0625 μg/mL) at different time intervals (0, 3, 6 and 9 h) on the level of nuclear DNA integrity was determined. […] The DNA migration was represented by the induction of DSBs in a time-dependent increase, as indicated by the abnormal tails’ sizes in the comet assay.
These assays were performed as described previously. […] In brief, the treated cells were labeled with a specific fluorescent dye for 30 min. After labeling, cells were washed with PBS and resuspended in PBS at a concentration of 1 × 10^6 cells/mL before analysis via flow cytometry.

T1 sequence (P11388 whole entry): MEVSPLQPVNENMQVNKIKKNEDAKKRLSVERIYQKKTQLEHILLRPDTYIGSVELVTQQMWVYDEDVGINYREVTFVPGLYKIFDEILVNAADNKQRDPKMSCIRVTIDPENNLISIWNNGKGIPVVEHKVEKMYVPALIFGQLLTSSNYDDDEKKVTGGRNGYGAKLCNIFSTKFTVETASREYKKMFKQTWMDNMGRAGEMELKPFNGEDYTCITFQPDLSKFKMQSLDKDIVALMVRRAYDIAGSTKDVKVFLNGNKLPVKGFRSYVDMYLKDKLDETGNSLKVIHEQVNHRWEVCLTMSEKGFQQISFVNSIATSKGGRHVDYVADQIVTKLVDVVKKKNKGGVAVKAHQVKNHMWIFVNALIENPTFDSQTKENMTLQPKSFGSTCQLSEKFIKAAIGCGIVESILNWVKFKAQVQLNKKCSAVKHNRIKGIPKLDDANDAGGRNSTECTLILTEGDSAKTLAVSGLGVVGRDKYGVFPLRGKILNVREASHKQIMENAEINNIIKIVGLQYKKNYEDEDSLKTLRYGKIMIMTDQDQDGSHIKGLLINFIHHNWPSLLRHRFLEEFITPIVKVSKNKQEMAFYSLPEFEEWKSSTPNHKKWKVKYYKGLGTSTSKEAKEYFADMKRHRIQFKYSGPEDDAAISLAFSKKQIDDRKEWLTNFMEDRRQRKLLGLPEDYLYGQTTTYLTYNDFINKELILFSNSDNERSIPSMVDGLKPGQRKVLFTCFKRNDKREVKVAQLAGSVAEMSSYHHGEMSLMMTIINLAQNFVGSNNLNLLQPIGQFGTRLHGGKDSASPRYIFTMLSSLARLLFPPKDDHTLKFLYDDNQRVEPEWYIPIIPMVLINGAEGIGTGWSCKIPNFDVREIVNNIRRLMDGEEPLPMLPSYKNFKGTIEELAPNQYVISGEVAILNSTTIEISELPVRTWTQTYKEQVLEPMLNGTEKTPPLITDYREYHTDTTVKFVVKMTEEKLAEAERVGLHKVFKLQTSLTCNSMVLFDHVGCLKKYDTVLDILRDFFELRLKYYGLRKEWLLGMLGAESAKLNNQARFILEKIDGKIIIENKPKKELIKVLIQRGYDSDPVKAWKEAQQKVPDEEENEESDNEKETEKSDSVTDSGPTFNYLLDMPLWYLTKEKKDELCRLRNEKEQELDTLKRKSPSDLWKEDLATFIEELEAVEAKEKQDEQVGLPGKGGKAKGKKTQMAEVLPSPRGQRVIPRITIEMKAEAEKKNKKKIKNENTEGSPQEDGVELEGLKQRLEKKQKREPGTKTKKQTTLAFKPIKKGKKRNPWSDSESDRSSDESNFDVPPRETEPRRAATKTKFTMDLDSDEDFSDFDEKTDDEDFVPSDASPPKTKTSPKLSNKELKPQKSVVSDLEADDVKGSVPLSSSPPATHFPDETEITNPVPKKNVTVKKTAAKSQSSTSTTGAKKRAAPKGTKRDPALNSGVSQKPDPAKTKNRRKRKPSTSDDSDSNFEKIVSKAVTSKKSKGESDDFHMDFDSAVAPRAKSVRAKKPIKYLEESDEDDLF

Compound: CC[C@@]1(C)CCC[C@]2(C)[C@H]3C[C@@H](OC(=O)C[C@@H](C)O)[C@]4(C)[C@@H](C=O)C(C(C)=O)=CC[C@H]4[C@]3(C)CC[C@@H]12 (relative stereo) [Compound 1, 12β-(3′β-hydroxybutanoyloxy)-20,24-dimethyl-24-oxo-scalara-16-en-25-al]
- IC50 (Cal-27 cells): 0.56 µg/mL (≈ 1.12 µM)
- localization of Hsp70 (Hsp70 in Molt 4 cells): predominantly accumulated in cytosol
- inhibition at 0.08 µg/mL (human topoisomerase II; 0.08 μg/mL): 12%
- inhibition at 0.312 µg/mL (human topoisomerase II; 0.312 μg/mL): 13%
- inhibition at 1.25 µg/mL (human topoisomerase II; 1.25 μg/mL): 17%
- inhibition at 5 µg/mL (human topoisomerase II; 5 μg/mL): 20%
- inhibition at 20 µg/mL (human topoisomerase II; 20 μg/mL): 99%
- IC50 (HL 60 cells): 0.01 µg/mL (≈ 0.02 µM)
- apoptotic population of Molt 4 cells (Molt 4 cells [1]; 0, 0.0625, 0.125 and 0.25 μg/mL, 24 h, annexin-V/PI): increase in the apoptotic population
- lowest dose inducing mitochondrial dysfunction and apoptotic cell death (Molt 4 cells [1]; 24 h, flow cytometry): 0.0625 µg/mL
- concentration that triggered MMP disruption and apoptosis (Molt 4 cells [1]; Molt 4 cells, molar value in brackets): 125 nM
- increase in intracellular Ca2+ accumulation compared to MFI of control (Molt 4 cells [2]; 0.5 h): 1.03 folds
- increase in intracellular Ca2+ accumulation compared to MFI of control (Molt 4 cells [2]; 1 h): 1.05 folds
- increase in intracellular Ca2+ accumulation compared to MFI of control (Molt 4 cells [2]; 2 h): 1.06 folds
- increase in intracellular Ca2+ accumulation compared to MFI of control (Molt 4 cells [2]; 3 h): 1.37 folds
- increase in intracellular Ca2+ accumulation compared to MFI of control (Molt 4 cells [2]; 6 h): 2.41 folds
- increase in intracellular Ca2+ accumulation compared to MFI of control (Molt 4 cells [2]; 18 h): 1.06 folds

— publication PMC5086919, “Antileukemic Scalarane Sesterterpenoids and Meroditerpenoid from Carteriospongia (Phyllospongia) sp., Induce Apoptosis via Dual Inhibitory Effects on Topoisomerase II and Hsp90” (Scientific Reports, 2016)
